Data taken from the NIST ThermoML archive (doi:10.1016/j.jct.2005.09.004).
Numbers after ± are expanded uncertainties.

Assays:
[1] = for surface tension liquid-gas: Drop volume; for mass density: 101.33 kPa, Liquid
[2] = refractive index (Na D-line) (dimensionless); settings: 101.33 kPa, Liquid, Standard Abbe refractometry

Row | Structure (SMILES) | surface tension liquid-gas ([1]; 283.15 K) | mass density ([1]; 283.15 K) | surface tension liquid-gas ([1]; 298.15 K) | mass density ([1]; 298.15 K) | surface tension liquid-gas ([1]; 313.15 K) | mass density ([1]; 313.15 K) | refractive index ([2]; 283.15 K) | refractive index ([2]; 298.15 K) | refractive index ([2]; 313.15 K)
1 | C1CCCC1 [cyclopentane] | 24.14 ± 0.3 mN/m | 754.85 ± 0.77 kg/m3 | 22.06 ± 0.28 mN/m | 739.74 ± 0.79 kg/m3 | 19.76 ± 0.25 mN/m | 724.71 ± 0.81 kg/m3 | 1.41197 ± 0.00037 | 1.40335 ± 0.00037 | 1.39451 ± 0.00037
2 | C1COCCO1 [1,4-dioxane] | 35.09 ± 0.39 mN/m | 1045.16 ± 0.14 kg/m3 | 33.23 ± 0.37 mN/m | 1027.85 ± 0.12 kg/m3 | 31.23 ± 0.35 mN/m | 1010.99 ± 0.11 kg/m3 | 1.42721 ± 0.00031 | 1.41992 ± 0.00031 | 1.41256 ± 0.00031
3 | C1CCCCC1 [cyclohexane] | 26.28 ± 0.3 mN/m | 787.97 ± 0.3 kg/m3 | 24.73 ± 0.28 mN/m | 773.65 ± 0.32 kg/m3 | 22.93 ± 0.26 mN/m | 759.59 ± 0.33 kg/m3 | 1.43182 ± 0.00031 | 1.42348 ± 0.00031 | 1.41498 ± 0.00031
